Laboratory results: patent US7897543B2, “Spiroketal-substituted cyclic ketoenols” (Bayer CropScience AG, priority 2005, dated 2011)
Marks after values point to notes of the source that are not given here.

Assays:
Phaedon cochleariae = test: Example N: Phaedon Test (spray treatment); assay type: in vivo; settings: application rate 500 g/ha
Description: [table] To produce a suitable preparation of active compound, 1 part by weight of active compound is mixed with the stated amounts of solvents and emulsifier, and the concentrate is diluted with emulsifier-containing water to the desired concentration. Discs of Chinese cabbage (Brassica pekinensis) are sprayed with a preparation of active compound of the desired concentration and, after drying, populated with larvae of the mustard beetle (Phaedon cochleariae).

Test plants = test: Example U: Pre-emergence Test; assay type: in vivo; settings: greenhouse, 250 g of a.i./ha, after three weeks
Description: To produce a suitable preparation of active compound, 1 part by weight of active compound is mixed with the stated amount of solvent, the stated amount of emulsifier is added and the concentrate is diluted with water to the desired concentration.
Seeds of the test plants are sown in normal soil. After about 24 hours, the soil is sprayed with the preparation of active compound such that the particular amounts of active compound desired are applied per unit area. The concentration of the spray liquor is chosen such that the particular amounts of active compound desired are applied in 1000 l of water/ha.
After three weeks, the degree of damage to the plants is rated in % damage in comparison to the development of the untreated control.
The figures denote: • 0%=no effect (like untreated control) • 100%=total destruction

[1] = log P determination by HPLC/LC-MS retention times, calibration with alkan-2-ones; assay type: physicochemical; settings: for log P: HPLC on reversed-phase column (C 18), 43° C., EEC Directive 79/831 Annex V.A8
Description: In the acidic range, the determination is carried out at pH 2.3 using 0.1% aqueous phosphoric acid and acetonitrile as mobile phases; linear gradient from 10% acetonitrile to 95% acetonitrile.
The determination by LC-MS in the acidic range is carried out at pH 2.7 using 0.1% aqueous formic acid and acetonitrile (comprises 0.1% formic acid) as mobile phases; linear gradient from 10% acetonitrile to 95% acetonitrile.
The determination by LC-MS in the neutral range is carried out at pH 7.8 using 0.001 molar aqueous ammonium bicarbonate solution and acetonitrile as mobile phases; linear gradient from 10% acetonitrile to 95% acetonitrile.
Calibration is carried out using unbranched alkan-2-ones (having 3 to 16 carbon atoms) with known log P values (determination of the log P values by the retention times using linear interpolation between two successive alkanones).

| SMILES | activity in % (Phaedon cochleariae) [%] | also measured |
| --- | --- | --- |
| CCc1cc(Br)cc(C)c1C1=C(O)C2(CCC3(CC2)OC(C)CC(C)O3)NC1=O (mixture of isomers) [Ex. I-1-a-63] | 100 |  |
| Cc1cc(Cl)cc(C)c1C1=C(O)C2(CCC3(CC2)OCC(C)(C)CO3)NC1=O [Ex. I-1-a-20] | 100 |  |
| Cc1cc(Br)cc(C)c1C1=C(O)C2(CCC3(CC2)OCC(C)CO3)NC1=O (mixture of isomers) [Ex. I-1-a-32] | 100 |  |
| Cc1cc(Cl)cc(C)c1C1=C(O)C2(CCC3(CC2)OCCCO3)NC1=O [Ex. I-1-a-14] |  | damage, Sugar beet (Test plants; crop plant, sub-table 3): 0%; damage, Alopecurus (Test plants; sub-table 3): 95%; damage, Avena fatua (Test plants; sub-table 3): 80%; damage, Echinochloa (Test plants; sub-table 3): 80%; damage, Setaria (Test plants; sub-table 3): 90% |
| CCOC(=O)OC1=C(c2c(C)cc(Cl)cc2Cl)C(=O)NC12CCC1(CC2)OCCO1 [Ex. I-1-c-4] |  | damage, Alopecurus (Test plants; sub-table 2): 80%; damage, Echinochloa (Test plants; sub-table 2): 90%; damage, Setaria (Test plants; sub-table 2): 99%; damage, Sinapis (Test plants; sub-table 2): 80% |
| Cc1cc(Br)cc(C)c1C1=C(O)C2(CCC3(CC2)OCC(C)(C)CO3)NC1=O [Ex. I-1-a-33] | 100 |  |
| Cc1ccc(-c2ccc(Cl)cc2)c(C)c1C1=C(O)C2(CCC3(CC2)OCC(C)O3)NC1=O (mixture of isomers) [Ex. I-1-a-51] | 100 |  |
| CCOC(=O)OC1=C(c2cc(C)ccc2C)C(=O)NC12CCC1(CC2)OCC(C)O1 (mixture of isomers) [Ex. I-1-c-19] | 100 |  |
| CCc1cc(Br)cc(C)c1C1=C(O)C2(CCC3(CC2)OCCO3)NC1=O [Ex. I-1-a-39] | 100 |  |
| O=C1NC2(CCC3(CC2)OCCO3)C(O)=C1c1cc(-c2ccc(Cl)cc2)ccc1Cl [Ex. I-1-a-49] | 100 |  |
| Cc1ccc(C)c(C2=C(O)C3(CCC4(CC3)OCC(C)(C)CO4)NC2=O)c1 [Ex. I-1-a-61] | 100 |  |
| Cc1ccc(-c2ccc(Cl)cc2)cc1C1=C(O)C2(CCC3(CC2)OCC(C)(C)CO3)NC1=O [Ex. I-1-a-67] | 100 |  |
| COc1cc(C)cc(C)c1C1=C(O)C2(CCC3(CC2)OCCO3)NC1=O [Ex. I-1-a-43] | 100 |  |
| CCOC(=O)OC1=C(c2cc(-c3ccc(Cl)cc3)ccc2C)C(=O)NC12CCC1(CC2)OCCCO1 [Ex. I-1-c-31] | 100 |  |
| Cc1ccc(-c2ccc(Cl)cc2)cc1C1=C(O)C2(CCC3(CC2)OC(C)C(C)O3)NC1=O (mixture of isomers) [Ex. I-1-a-54] | 100 |  |
| COc1cc(C)cc(C)c1C1=C(O)C2(CCC3(CC2)OCCCO3)NC1=O [Ex. I-1-a-24] | 100 |  |
| Cc1ccc(-c2ccc(Cl)cc2)cc1C1=C(O)C2(CCC3(CC2)OCC(C)O3)NC1=O (mixture of isomers) [Ex. I-1-a-52] | 100 |  |
| CCCC1COC2(CCC3(CC2)NC(=O)C(c2c(C)cc(C)cc2C)=C3O)O1 (single isomer, unassigned) [Ex. I-1-a-9] | 100 | logP ([1]; printed in the Isomer column of the (I-1-a) table): 2.78 |
| Cc1cc(Br)cc(C)c1C1=C(O)C2(CCC3(CC2)OC(C)CC(C)O3)NC1=O (mixture of isomers) [Ex. I-1-a-56] | 100 |  |
| Cc1cc(Br)cc(C)c1C1=C(O)C2(CCC3(CC2)OCC(C)O3)NC1=O (mixture of isomers) [Ex. I-1-a-47] | 100 |  |
| Cc1cc(Cl)cc(Cl)c1C1=C(O)C2(CCC3(CC2)OCCCO3)NC1=O [Ex. I-1-a-11] |  | damage, Alopecurus (Test plants; sub-table 2): 90%; damage, Avena fatua (Test plants; sub-table 2): 70%; damage, Echinochloa (Test plants; sub-table 2): 80%; damage, Setaria (Test plants; sub-table 2): 90%; damage, Alopecurus (Test plants; sub-table 4): 80%; damage, Echinochloa (Test plants; sub-table 4): 80%; damage, Setaria (Test plants; sub-table 4): 100% |
| CCc1cc(Br)cc(C)c1C1=C(O)C2(CCC3(CC2)OCC(C)O3)NC1=O (mixture of isomers) [Ex. I-1-a-53] | 100 |  |
| CCc1cc(C)cc(CC)c1CC(=O)NC1(C(=O)OC)CCC2(CC1)OCCO2 [II-32] |  | log P [1]: log P 3.28* |
| Cc1ccc(-c2ccc(Cl)cc2)cc1C1=C(O)C2(CCC3(CC2)OCCCO3)NC1=O [Ex. I-1-a-16] | 100 |  |

| SMILES | activity in % (Phaedon cochleariae) [%] | also measured |
| --- | --- | --- |
| Cc1ccc(-c2ccc(Cl)cc2)cc1C1=C(O)C2(CCC3(CC2)OCCC(C)O3)NC1=O (mixture of isomers) [Ex. I-1-a-66] | 100 |  |
| CC1COC2(CCC3(CC2)NC(=O)C(c2cc(-c4ccc(Cl)cc4)ccc2Cl)=C3O)OC1 (mixture of isomers) [Ex. I-1-a-65] | 100 |  |
| COCC1COC2(CCCC3(C2)NC(=O)C(c2c(C)cc(C)cc2C)=C3O)O1 (mixture of isomers) [Ex. I-1-a-71] | 100 |  |
| Cc1cc(Cl)cc(C)c1C1=C(O)C2(CCC3(CC2)OCC(C)CO3)NC1=O (mixture of isomers) [Ex. I-1-a-34] | 100 |  |
| Cc1cc(C)c(C2=C(O)C3(CCC4(CC3)OC(C)C(C)O4)NC2=O)c(C)c1 (mixture of isomers) [Ex. I-1-a-10] | 100 |  |
| CCc1cc(Br)cc(C)c1CC(=O)NC1(C(=O)OC)CCC2(CC1)OCCO2 [II-9] |  | log P [1]: wax log P 3.19* |
| COC(=O)C1(NC(=O)Cc2c(C)cc(Br)cc2C)CCC2(CC1)OCCO2 [II-7] |  | log P [1]: wax log P 2.81* |
| COC(=O)C1(NC(=O)Cc2cc(-c3ccc(Cl)cc3)ccc2C)CCC2(CC1)OCCO2 [II-31] |  | log P [1]: log P 3.47* |
| CC1(C)COC2(CCC3(CC2)NC(=O)C(c2cc(-c4ccc(Cl)cc4)ccc2Cl)=C3O)OC1 [Ex. I-1-a-64] | 100 |  |
| CCc1cc(Br)cc(C)c1C1=C(O)C2(CCC3(CC2)OC(C)C(C)O3)NC1=O (mixture of isomers) [Ex. I-1-a-45] | 100 |  |
| COC(=O)C1(NC(=O)Cc2c(C)cc(C)cc2C)CCC2(CC1)OCCO2 [II-2] |  | log P [1]: log P 2.68 |
| COC(=O)C1(NC(=O)Cc2cc(C)c(C)cc2C)CCC2(CC1)OCCCO2 [II-17] |  | log P [1]: log P 2.59* |
| Cc1cc(Cl)cc(C)c1C1=C(O)C2(CCC3(CC2)OC(C)CC(C)O3)NC1=O (mixture of isomers) [Ex. I-1-a-38] | 100 |  |
| Cc1cc(Cl)cc(C)c1C1=C(O)C2(CCC3(CC2)OC(C)C(C)O3)NC1=O (mixture of isomers) [Ex. I-1-a-30] | 100 |  |
| Cc1ccc(-c2ccc(Cl)cc2)cc1C1=C(O)C2(CCC3(CC2)OCCO3)NC1=O [Ex. I-1-a-27] | 100 |  |
| CCc1cc(C)cc(C)c1CC(=O)NC1(C(=O)OC)CCC2(CC1)OCCO2 [II-8] |  | log P [1]: wax log P 2.95* |
| Cc1ccc(C)c(C2=C(O)C3(CCC4(CC3)OCCO4)NC2=O)c1 [Ex. I-1-a-68] | 100 |  |
| CCOC(=O)OC1=C(c2c(C)cc(C)cc2OC)C(=O)NC12CCC1(CC2)OCCCO1 [Ex. I-1-c-34] | 100 |  |
| COC(=O)C1(NC(=O)Cc2c(C)cc(C)cc2OC)CCC2(CC1)OCCCO2 [II-24] |  | log P [1]: log P 2.49* |
| Cc1cc(Cl)cc(C)c1C1=C(O)C2(CCC3(CC2)OCC(C)O3)NC1=O (mixture of isomers) [Ex. I-1-a-31] | 100 |  |
| CCc1cc(C)cc(Br)c1CC(=O)NC1(C(=O)OC)CCC2(CC1)OCCO2 [II-36] |  | log P [1]: log P 3.04* |
| CCCC1COC2(CCC3(CC2)NC(=O)C(c2c(C)cc(C)cc2C)=C3O)O1 (centres unmarked) [Ex. I-1-a-8] | 100 | chromatographic logP ([1]; HPLC/LC-MS retention times, printed in the Isomer column of the (I-1-a) table): 2.73 |
| Cc1cc(Br)cc(C)c1C1=C(O)C2(CCC3(CC2)OC(C)C(C)O3)NC1=O (mixture of isomers) [Ex. I-1-a-46] | 100 |  |
